Experimental data taken from PMC10785756, “Hydrolysis of Antimicrobial Peptides by Extracellular Peptidases in Wastewater” (Environmental Science & Technology, 2023).
Like-named read-outs stand apart in the source and are kept apart here. Peptide text beside a SMILES is read from it.

Tested on: extracellular wastewater peptidases (pool I extracts from WWTP influents)
Assay: Absolute quantification of transformation products (TPs) formed during AMP incubation with wastewater extracts
Assay type: in vitro ADME
Description: We thawed enzyme extracts and transferred 1.35 mL to 2 mL protein LoBind Eppendorf tubes. For autoclaved controls, extract aliquots of 1.5 mL were autoclaved for 20 min at 121 °C and 2 bar (Wolf Sanoclav LaS-MCS-J) and 1.35 mL of the autoclaved extracts were transferred into 2 mL protein LoBind Eppendorf tubes. We then spiked 150 μL of the AMP stock solution containing all AMPs at 10 μg/mL to the enzyme extracts or 1.35 mL of ultrapure water. […] Triplicate incubations were conducted for the autoclaved and active extracts with spiked AMP. After AMP spiking, we mixed the solutions by inverting the vials and incubating them at 20 °C under horizontal shaking at 300 rpm. To stop enzymatic reactions at pre-defined sampling time points (i.e., 2 min, 30 min, 1 h, 2 h, and 4 h), we transferred 150 μL of the incubation solution to 450 μL of acetonitrile containing 1% (v/v) formic acid in 1.5 mL protein LoBind Eppendorf tubes, mixed the resulting solution by inverting the tube and by horizontally shaking it at 300 rpm for 2 min at 20 °C, and centrifuged samples at 16,000g for 1 min. This protocol step was conducted according to Luther et al.[9] We then transferred the supernatant into a fresh 1.5 mL protein LoBind Eppendorf tube and dried it in a SpeedVac vacuum concentrator (30 °C for approximately 6 h). To resolubilize AMPs, we added 150 μL of water containing 5% (v/v) acetonitrile and 0.1% (v/v) formic acid, vortexed the samples, and centrifuged them for 10 s at 1000g at room temperature. We transferred the solution into QuanRecovery HPLC vials (Waters, 186009186) and stored the samples at −20 °C until analysis. For method development, selected (and indicated) samples were sonicated (Sonorex Super RK 106, Bandelin, max 480 W) for 5 min at different steps of the sample preparation process.
We analyzed AMPs using UHPLC (Thermo Scientific Dionex Ultimate 3000) equipped with a Waters XSelect PREMIER CSH C18 column (article number: 186009870) coupled to HRMS (Thermo QExactive). […] We used Skyline (version 20.2.0.343) to analyze the raw data. Criteria for parent peptides and hydrolysis product identification were set as described before:[31]m/z deviation <2 ppm, MS/MS fragments with m/z deviation <5 ppm, and reasonable chromatographic peak shape. For products, the peak area had to either increase throughout the incubation experiment or first increase and then decrease.
To learn about the enzymatic hydrolysis pathways of AMPs that we found to be rapidly biotransformed by enzymes in wastewater extracts, we predicted all products of single peptide bond hydrolysis reactions and screened our data-dependent high-resolution mass spectrometry data for experimental evidence in support of the predicted hydrolysis products. These analyses were conducted for the AMPs with the highest biotransformation extents (i.e., >0.5 in at least two WWTPs), namely, cecropin P1, omiganan, and R8. The following requirements for transformation products (TPs) were defined: at least three amino acids, peak area either increases during the incubation experiment or first increases and then decreases, peak area exceeds that in AMP-free enzyme extract by >5-fold and that in spiked autoclaved extracts by >6-fold, and mass deviation <2 ppm from the calculated exact mass. Mass lists, mass deviations, and retention times of all TPs can be found in Tables S6–S11. We further predicted TPs formed via exocleavage mechanisms (i.e., cleavage of one or two terminal amino acids simultaneously from the C- and N- terminus of the peptide) and screened for these TPs in the HRMS data.
For cecropin P1, we performed absolute quantification for TPs II, III, IV, V, VI, and X and found the highest concentrations for TP III. Up to 8.8% of spiked cecropin P1 is converted to TP III during incubations with wastewater extract. For TP II, the conversion ranges from 3.7–5.7%, and for TP V and VI, conversions range between 1.5 and 4.9 and 2.1 and 2.9%, respectively. […]

[1] = maximum TP concentration corrected for sorption to the wastewater matrix
[2] = maximum TP concentration during incubation of parent AMP with wastewater extracts, synthetic standards, HPLC-HRMS
[3] = pool I influent extracts, WWTPs A-D, absolute quantification with synthetic peptide standards, HPLC-HRMS, triplicate incubations

| Maximum conc. detected in exp. [µg/L] | Potential conc. considering sorption [µg/L] | conversion of spiked parent AMP to the TP during incubation with wastewater extract | SMILES | Potential conc. considering sorption [1] [µg/L] | Maximum conc. detected in exp. [2] [µg/L] | conversion of spiked parent AMP to the TP during incubation with wastewater extract [3] |
| --- | --- | --- | --- | --- | --- | --- |
|  |  |  | CC(C)[C@H](NC(=O)[C@H](CCCCN)NC(=O)CNC(=O)[C@H](Cc1ccccc1)NC(=O)[C@@H](NC(=O)[C@H](C)N)C(C)C)C(=O)O [AVFGKV (V)] (H-AVFGKV-OH) | 30.0 | 27.5 |  |
|  |  |  | CC(C)C[C@H](NC(=O)[C@H](Cc1c[nH]c2ccccc12)NC(=O)[C@@H](N)CO)C(=O)N[C@@H](CO)C(=O)O [SWLS (II)] (H-SWLS-OH) | 69.5 | 57.1 | 3.7–5.7% |
|  |  |  | CC(C)C[C@H](NC(=O)[C@H](Cc1c[nH]c2ccccc12)NC(=O)[C@@H](N)CO)C(=O)N[C@@H](CO)C(=O)N[C@@H](CCCCN)C(=O)N[C@H](C(=O)O)[C@@H](C)O [SWLSKT (X)] (H-SWLSKT-OH) | 3.7 | 2.9 | less than 1% |
| 2.7 | 3.4 | less than 1% | CC(C)C[C@H](NC(=O)[C@H](Cc1c[nH]c2ccccc12)NC(=O)[C@@H](N)CO)C(=O)O [SWL (IV)] (H-Ser-Trp-Leu-OH) |  |  |  |
|  |  |  | CC(C)C[C@H](NC(=O)[C@@H](N)Cc1ccccc1)C(=O)NCC(=O)N[C@@H](CCCCN)C(=O)N[C@H](C(=O)O)C(C)C [FLGKV (II)] (H-FLGKV-OH) | 19.5 | 16.5 |  |
| 22.8 | 29.3 |  | CC(C)C[C@H](NC(=O)[C@@H](N)Cc1ccccc1)C(=O)NCC(=O)O [FLG (IV)] (H-Phe-Leu-Gly-OH) |  |  |  |
|  |  |  | CC(C)C[C@H](NC(=O)[C@H](Cc1c[nH]c2ccccc12)NC(=O)[C@@H](N)CO)C(=O)N[C@@H](CO)C(=O)N[C@@H](CCCCN)C(=O)N[C@H](C(=O)N[C@@H](C)C(=O)O)[C@@H](C)O [SWLSKTA (VI)] (H-SWLSKTA-OH) | 36.4 | 28.6 |  |
| 6.9 | 8.1 | less than 1% | CC[C@H](C)[C@H](N)C(=O)N[C@@H](CC(C)C)C(=O)N[C@@H](CCCNC(=N)N)C(=O)N[C@@H](Cc1c[nH]c2ccccc12)C(=O)N1CCC[C@H]1C(=O)N[C@@H](Cc1c[nH]c2ccccc12)C(=O)N[C@@H](Cc1c[nH]c2ccccc12)C(=O)N1CCC[C@H]1C(=O)O [ILRWPWWP (I)] (H-ILRWPWWP-OH) |  |  |  |
|  |  |  | CC(C)C[C@H](NC(=O)[C@@H](N)Cc1ccccc1)C(=O)NCC(=O)N[C@@H](CCCCN)C(=O)N[C@H](C(=O)N[C@@H](Cc1ccccc1)C(=O)O)C(C)C [FLGKVF (I)] (H-FLGKVF-OH) | 101.9 | 78.3 | Up to 7.8% |
|  |  |  | CC(C)[C@H](N)C(=O)N[C@@H](Cc1ccccc1)C(=O)NCC(=O)N[C@@H](CCCCN)C(=O)N[C@H](C(=O)O)C(C)C [VFGKV (VII)] (H-VFGKV-OH) | 47.1 | 32.1 |  |
|  |  |  | CC[C@H](C)[C@H](N)C(=O)N[C@@H](CCC(N)=O)C(=O)NCC(=O)NCC(=O)N1CCC[C@H]1C(=O)N[C@@H](CCCNC(=N)N)C(=O)O [IQGGPR (III)] (H-IQGGPR-OH) | 124.8 | 87.8 | Up to 8.8% |
|  |  |  | CC[C@H](C)[C@H](NC(=O)[C@H](C)N)C(=O)N[C@@H](CCC(N)=O)C(=O)NCC(=O)NCC(=O)N1CCC[C@H]1C(=O)N[C@@H](CCCNC(=N)N)C(=O)O [AIQGGPR (V)] (H-AIQGGPR-OH) | 78.2 | 48.6 |  |
